Test results reported in PubChem BioAssay AID2060337 (Molecular Pharmacology Branch, DTP, NCI, 2025).

System: 832693-133-R-J1-PDC multi-cell spheroids, viability
Assay: Anticancer human tumor 832693-133-R-J1-PDC patient-derived head and neck squamous carcinoma cell line growth inhibition [IpAb]
Conditions: for IC50: curve of first compound; for viability, T/C: stronger effect = lower value
Procedure, shortened: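 Combinations with ipatasertib or abemaciclib were tested on tumour spheroids holding HUVEC (25%) and MSC (15%) alongside 60% malignant cells. Top concentration was at or near clinical Cmax (10 microM if undefined), descending in half-log steps.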
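Also: spheroids exposed to the drugs for one week before the viability readout.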
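For viability, T/C in this document: 100% = DMSO vehicle control wells.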

SMILES: CC(C)(C)c1cnc(CSc2cnc(NC(=O)C3CCNCC3)s2)o1 + CC(C)NCC(C(=O)N1CCN(c2ncnc3c2C(C)CC3O)CC1)c1ccc(Cl)cc1
- IC50 (second compound 0.1 µM): 219 nM
- IC50 (second compound 0.316 µM): 189 nM
- IC50 (second compound 1 µM): 137 nM
- IC50 (second compound 3.16 µM): 133 nM
- IC50 (second compound 10 µM): 158 nM
- viability, T/C (second compound 0.1 µM, first compound 0.00949 µM): 101%
- viability, T/C (second compound 0.1 µM, first compound 0.03 µM): 122%
- viability, T/C (second compound 0.1 µM, first compound 0.0949 µM): 146%
- viability, T/C (second compound 0.1 µM, first compound 0.3 µM): 22.2%
- viability, T/C (second compound 0.1 µM, first compound 0.949 µM): 1.14%
- viability, T/C (second compound 0.1 µM, first compound 3 µM): 1.67%
- viability, T/C (second compound 0.316 µM, first compound 0.00949 µM): 92.5%
- viability, T/C (second compound 0.316 µM, first compound 0.03 µM): 94.2%
- viability, T/C (second compound 0.316 µM, first compound 0.0949 µM): 113%
- viability, T/C (second compound 0.316 µM, first compound 0.3 µM): 16.5%
- viability, T/C (second compound 0.316 µM, first compound 0.949 µM): 0.85%
- viability, T/C (second compound 0.316 µM, first compound 3 µM): 1.58%
- viability, T/C (second compound 1 µM, first compound 0.00949 µM): 67.7%
- viability, T/C (second compound 1 µM, first compound 0.03 µM): 70.7%
- viability, T/C (second compound 1 µM, first compound 0.0949 µM): 75.6%
- viability, T/C (second compound 1 µM, first compound 0.3 µM): 4.32%
- viability, T/C (second compound 1 µM, first compound 0.949 µM): 1.17%
- viability, T/C (second compound 1 µM, first compound 3 µM): 1.18%
- viability, T/C (second compound 3.16 µM, first compound 0.00949 µM): 60%
- viability, T/C (second compound 3.16 µM, first compound 0.03 µM): 68%
- viability, T/C (second compound 3.16 µM, first compound 0.0949 µM): 81.9%
- viability, T/C (second compound 3.16 µM, first compound 0.3 µM): 1.46%
- viability, T/C (second compound 3.16 µM, first compound 0.949 µM): 1.05%
- viability, T/C (second compound 3.16 µM, first compound 3 µM): 1.4%
- viability, T/C (second compound 10 µM, first compound 0.00949 µM): 75%
- viability, T/C (second compound 10 µM, first compound 0.03 µM): 83.4%
- viability, T/C (second compound 10 µM, first compound 0.0949 µM): 108%
- viability, T/C (second compound 10 µM, first compound 0.3 µM): 0.9%
- viability, T/C (second compound 10 µM, first compound 0.949 µM): 1.13%
- viability, T/C (second compound 10 µM, first compound 3 µM): 1.37%

SMILES: Cn1nccc1Nc1nccc(-c2ccn(C(CO)c3ccc(Cl)c(F)c3)c(=O)c2)n1 (stereo not given) + CCN1CCN(Cc2ccc(Nc3ncc(F)c(-c4cc(F)c5nc(C)n(C(C)C)c5c4)n3)nc2)CC1
- IC50 (second compound 0.01 µM): 1140 nM
- IC50 (second compound 0.0316 µM): 852 nM
- IC50 (second compound 0.1 µM): 444 nM
- IC50 (second compound 0.316 µM): 617 nM
- IC50 (second compound 1 µM): 5370 nM
- viability, T/C (second compound 0.01 µM, first compound 0.0316 µM): 87.8%
- viability, T/C (second compound 0.01 µM, first compound 0.1 µM): 83.6%
- viability, T/C (second compound 0.01 µM, first compound 0.316 µM): 67.6%
- viability, T/C (second compound 0.01 µM, first compound 1 µM): 55.9%
- viability, T/C (second compound 0.01 µM, first compound 3.16 µM): 31.9%
- viability, T/C (second compound 0.01 µM, first compound 10 µM): 30.3%
- viability, T/C (second compound 0.0316 µM, first compound 0.0316 µM): 78%
- viability, T/C (second compound 0.0316 µM, first compound 0.1 µM): 68.1%
- viability, T/C (second compound 0.0316 µM, first compound 0.316 µM): 61.2%
- viability, T/C (second compound 0.0316 µM, first compound 1 µM): 52.7%
- viability, T/C (second compound 0.0316 µM, first compound 3.16 µM): 31%
- viability, T/C (second compound 0.0316 µM, first compound 10 µM): 34.2%
- viability, T/C (second compound 0.1 µM, first compound 0.0316 µM): 70.7%
- viability, T/C (second compound 0.1 µM, first compound 0.1 µM): 59.5%
- viability, T/C (second compound 0.1 µM, first compound 0.316 µM): 53.7%
- viability, T/C (second compound 0.1 µM, first compound 1 µM): 47.2%
- viability, T/C (second compound 0.1 µM, first compound 3.16 µM): 27.1%
- viability, T/C (second compound 0.1 µM, first compound 10 µM): 32.3%
- viability, T/C (second compound 0.316 µM, first compound 0.0316 µM): 68.7%
- viability, T/C (second compound 0.316 µM, first compound 0.1 µM): 59.5%
- viability, T/C (second compound 0.316 µM, first compound 0.316 µM): 53.3%
- viability, T/C (second compound 0.316 µM, first compound 1 µM): 50.5%
- viability, T/C (second compound 0.316 µM, first compound 3.16 µM): 36.8%
- viability, T/C (second compound 0.316 µM, first compound 10 µM): 31.9%
- viability, T/C (second compound 1 µM, first compound 0.0316 µM): 74.9%
- viability, T/C (second compound 1 µM, first compound 0.1 µM): 82.7%
- viability, T/C (second compound 1 µM, first compound 0.316 µM): 63.6%
- viability, T/C (second compound 1 µM, first compound 1 µM): 62.7%
- viability, T/C (second compound 1 µM, first compound 3.16 µM): 57.8%
- viability, T/C (second compound 1 µM, first compound 10 µM): 43.2%
